Blank lines part the entries; values can stand above or below the compound they belong to.
Assays:
[1] = tested on: human glioblastoma cells that have been modified to express luciferase
Method: U87-MG/eGFP-fLuc cells were seeded on Thermanox glass coverslips, allowed to settle and grow, and then subjected to either TTFields or no TTFields.
Bioluminescence imaging: For all bioluminescence work, we used genetically-modified GBM2, GBM39 and U87-MG whereby the glioblastoma cells were transfected with lentiviral vectors that expressed either firefly luciferase (fLuc for GBM39) or a fusion protein of GFP and firefly luciferase (GFP/fLuc for GBM2 and eGFP-fLuc for U87-MG) or a Renilla luciferase-Red Fluorescence protein fusion (RLuc-RL8 for KR158B).

U87-MG cells [2] = assay: Timing of permeability to 7-AAD after alternating electric field, flow cytometry; assay type: cell-based, human; conditions: 300 kHz, 1.62 V/cm RMS, 24 hours; sample incubated with 7-AAD while subjected to the field (added 15 minutes prior to cessation)
Method: FIG. 7D depicts the results of an experiment to test how quickly the permeability drops back down after cessation of the alternating electric fields. More specifically, 7-Aminoactinomycin D (7-AAD) is a fluorescent chemical compound with a strong affinity for DNA. […] 7-AAD was introduced into samples at five different times: 15 minutes prior to the cessation of the alternating electric field; immediately after cessation of the alternating electric field […]. In each case, the cells were incubated with 7-AAD for 30 minutes after introduction of the 7-AAD, followed by flow cytometry analysis of the percentage of cells with increased accumulation of the fluorescent 7-AAD for each of the different timings.

[3] = tested on: MDA-MB-435 human melanoma cell line cells; assay: Permeability of cell membranes to 7-AAD, flow cytometry; assay type: cell-based
Method: After this 15 minute period, alternating electric field application was terminated and the cells were incubated at room temperature for an additional 15 minutes.
After this 24 hour period, the alternating electric fields were turned off for 15 minutes, after which the 7-AAD was added. After waiting an additional 15 minutes, the percentage of cells with increased accumulation of the fluorescent 7-AAD was determined using flow cytometry.

glioblastoma patients = assay: Survival of glioblastoma patients treated with TTFields plus temozolomide; assay type: in vivo, human; conditions: TTFields plus temozolomide vs temozolomide alone, re-analysis of Ram et al.
Text: The treatment of glioblastoma (GBM) using alternating electric fields is a novel, validated therapy that has become an additional modality (after surgery chemoradiation and chemotherapy) for anti-cancer treatments. Intermediate frequency alternating electric fields (100-500 kHz) have been studied in detail. […] In the context of treating tumors, alternating electric fields at these frequencies are often referred to as “tumor treating fields” or “TTFields.”
Recurrence of GBM is inevitable and the median time to first recurrence despite standard therapy is approximately 7 months. […] TTFields compliance (≥75% vs. <75%) was an independent predictor of overall survival in the retrospective analysis of the full EF-14 trial dataset and the duration of use of TTFields was also found to affect overall survival. […] Namely, a correlation between the length of TTFields exposure and the duration of its effect on cell membrane permeability after cessation of TTFields was observed. At lengths of TTFields exposure of 0.5-3 h, the duration in BLI augmentation (compared to no TTFields conditions) lasted about 5 min. However, at TTFields exposures of 12-25 h, this difference in BLI between TTFields and no TTFields conditions lasted for more than 20 min.

U87-MG/GFP-Luc cells = assay: Drug sensitivity / synergy with TTFields; assay type: cell-based, human
GBM39 cells = assay: Drug sensitivity with TTFields; assay type: cell-based, human; conditions: TTFields for 3 days vs control without TTFields
[4] = target: T1, purified firefly luciferase (Photinus pyralis, UniProt P08659); assay: Activity of purified firefly luciferase exposed to TTFields; assay type: biochemical; conditions: 200 kHz TTFields, 60 minutes after initiation of TTFields
T1 construct: purchased Sigma Aldrich Inc (St. Louis, MO) SRE0045-2MG
T1 sequence (P08659 whole entry): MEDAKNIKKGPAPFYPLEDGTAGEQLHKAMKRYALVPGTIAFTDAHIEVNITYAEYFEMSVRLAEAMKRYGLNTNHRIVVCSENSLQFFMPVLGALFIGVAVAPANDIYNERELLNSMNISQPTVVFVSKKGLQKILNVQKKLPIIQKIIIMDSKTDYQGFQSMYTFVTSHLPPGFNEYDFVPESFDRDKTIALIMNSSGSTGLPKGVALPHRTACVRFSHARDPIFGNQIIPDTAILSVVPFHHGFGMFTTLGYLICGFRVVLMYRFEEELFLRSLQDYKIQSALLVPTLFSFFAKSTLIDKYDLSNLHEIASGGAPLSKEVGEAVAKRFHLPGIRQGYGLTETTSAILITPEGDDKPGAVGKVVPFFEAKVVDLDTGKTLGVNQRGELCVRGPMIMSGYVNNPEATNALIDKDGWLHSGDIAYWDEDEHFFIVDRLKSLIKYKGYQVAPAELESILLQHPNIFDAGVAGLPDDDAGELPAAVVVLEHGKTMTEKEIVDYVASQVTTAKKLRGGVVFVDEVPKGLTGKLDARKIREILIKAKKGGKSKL

U87-MG/eGFP-fLuc cells [5] = assay: Ethidium D uptake under TTFields; assay type: cell-based, human; conditions: 200 kHz TTFields vs no TTFields, p<0.0001
Text: Ethidium D permeates through both the plasma membrane and the nuclear membrane and intercalates into genomic DNA.

GBM39/Luc cells = assay: Drug sensitivity / synergy with TTFields; assay type: cell-based, human
MES-SA cells = assay: Intracellular accumulation of doxorubicin under 150 kHz alternating electric field; conditions: 1.62 V/cm RMS, 24 hours, 10 μM doxorubicin for the last hour
Method: In this experiment, MES-SA cells were treated with an alternating electric field at 150 kHz with a field strength of 1.62 V/cm RMS for 24 hours. After the first 23 hours, doxorubicin at a concentration of 10 μM was added and incubated for one hour during which time the alternating electric fields was continued (to complete the 24 hour period). The intracellular accumulation of doxorubicin was then measured.

[6] = tested on: MDA-MB-435 cells, doxorubicin resistant; assay: Intracellular accumulation of doxorubicin under alternating electric field; conditions: 150 kHz, 1.62 V/cm, 23 hours, then 10 μM doxorubicin for one hour with field; vs no field
Method: (§1) In this experiment, both wild type and doxorubicin resistant variants of MDA-MB-435 cells were treated with an alternating electric field at 150 kHz with a field strength of 1.62 V/cm for 23 hours. After this 23 hour period, doxorubicin at a concentration of 10 μM was added and incubated for one hour, during which time the alternating electric fields was continued. The intracellular accumulation of doxorubicin was then measured.

MDA-MB-235 cells = assay: Drug sensitivity / synergy with TTFields; assay type: cell-based
[7] = tested on: MDA-MB-435 cells, wild type; assay: Intracellular accumulation of doxorubicin under alternating electric field; conditions: 150 kHz, 1.62 V/cm, 23 hours, then 10 μM doxorubicin for one hour with field; vs no field
Method: as §1

U87-MG cells [8] = assay: 5-ALA uptake (PpIX fluorescence), single U87-MG culture; assay type: cell-based, human
Method: Experiments were performed to determine the effects of TTFields on uptake of 5-ALA (as measured by PpIX accumulation and its resultant fluorescence) in glioblastoma cells. Because it is difficult to distinguish the margin between tumor and normal cells using the present 5-ALA bioassay, the measurement of PpIX fluorescence was used to address this issue. Investigations were run to determine whether permeation of 5-ALA through the cellular membrane and into the glioblastoma cells could be increased with TTFields exposure. U87-MG cells were exposed or unexposed to TTFields, each for durations of 6-24 h.
All monovariant statistical comparisons between no TTFields vs. TTFields samples done by Student's t-test for n=3 experiments per time point.

[9] = tested on: U87-MG cells on PCS-201 fibroblasts co-culture; assay: 5-ALA uptake (PpIX fluorescence), U87-MG GBM on PCS-201 fibroblast co-cultures; assay type: cell-based, human
U87-MG/eGFP-fLuc cells [10] = assay: Annexin-V-APC binding (early apoptosis), fluorescence microscopy; assay type: cell-based, human; conditions: 21 μM, TTFields-unexposed samples
Method: To test if the imposition of TTFields affects cell membrane properties, and thus membrane permeability, the effect of TTFields on the behavior of fluorescently tagged reagents that bind to the cellular membrane was determined. Initially, the impact of TTFields on the binding of Annexin-V-APC to the membrane of U87-MG/eGFP-fLuc cells was measured. Annexin-V-APC binding is a signature of early apoptosis which is characterized by ruffling of the membrane.

human glioblastoma cells = assay: Growth inhibition by TTFields in conjunction with Withaferin A; assay type: cell-based; conditions: TTFields treatment in conjunction with Withaferin A
Text: In this figure, 5-ALA=5-aminolevulinic acid; Ethidium D=ethidium bromide; and FITC=fluorescein isothiocyanate.

[11] = TTFields for 3 days vs control without TTFields

permeation of the substrates through the plasma membrane (greater bioluminescence) [1]: increased permeation
Compound: Oc1ccc(Cc2nc3c(Cc4ccccc4)nc(-c4ccc(O)cc4)cn3c2O)cc1 [coelenterazine]

Compound: Cc1c2oc3c(C)c(N)cc(C(=O)N[C@@H]4C(=O)N[C@H](C(C)C)C(=O)N5CCC[C@H]5C(=O)N(C)CC(=O)N(C)[C@@H](C(C)C)C(=O)O[C@@H]4C)c3nc-2c(C(=O)N[C@@H]2C(=O)N[C@H](C(C)C)C(=O)N3CCC[C@H]3C(=O)N(C)CC(=O)N(C)[C@@H](C(C)C)C(=O)O[C@@H]2C)c(N)c1=O [7-AAD, 7-Aminoactinomycin D]
percentage of cells with increased accumulation of 7-AAD (U87-MG cells [2]): significant increase in accumulation | percentage of cells with increased accumulation of 7-AAD ([3]; 150 kHz, 1.62 V/cm, 24 hours, 7-AAD added 15 minutes after fields were turned off): ~20% | percentage of cells with increased accumulation of 7-AAD ([3]; 150 kHz, 1.62 V/cm, 24 hours, 7-AAD added for the last 15 minutes of the field): ~66% | percentage of cells with increased accumulation of 7-AAD ([3]; control, same conditions, alternating electric fields not applied): less than 5%

Compound: Cn1nnc2c(C(N)=O)ncn2c1=O [Temozolomide]
percent increase in overall survival (glioblastoma patients; after 1 year of TTFields exposure): 32% | percent increase in overall survival (glioblastoma patients; after 5 years of TTFields exposure): 551%

Compound: O=NN(CCCl)C(=O)NC1CCCCC1 [Lomustine]
sensitivity of cells to various concentrations of drug (U87-MG/GFP-Luc cells; [11]): improves the sensitivity | sensitivity of cells to various concentrations of drug (GBM39 cells): improves the sensitivity | sensitivity of cells to various concentrations of drug (pcGBM2/GFP-Luc cells; [11]): improves the sensitivity

Compound: firefly luciferase: purified firefly luciferase (SRE0045-2MG) purchased from Sigma Aldrich
loss in enzymatic activity [4]: > 1000 fold

Compound: CC[n+]1c(-c2ccccc2)c2cc(N)ccc2c2ccc(N)cc21 [ethidium D, ethidium bromide]
ethidium D uptake (U87-MG/eGFP-fLuc cells [5]): significantly increased

Compound: CCc1c2c(nc3ccc(OC(=O)N4CCC(N5CCCCC5)CC4)cc13)-c1cc3c(c(=O)n1C2)COC(=O)[C@]3(O)CC [Irinotecan]
synergy of the combination with TTFields (GBM39/Luc cells): synergy was found | sensitivity of cells to various concentrations of drug (GBM39/Luc cells; [11]): improves the sensitivity

increase of intracellular accumulation of doxorubicin (MES-SA cells): more than 2 X | intracellular accumulation of doxorubicin [6]: increased | intracellular accumulation of doxorubicin [7]: increased
Compound: COc1cccc2c1C(=O)c1c(O)c3c(c(O)c1C2=O)C[C@@](O)(C(=O)CO)C[C@@H]3O[C@H]1C[C@H](N)[C@H](O)[C@H](C)O1 [doxorubicin]
synergy of the combination with TTFields (MDA-MB-235 cells): Evidence of synergy | sensitivity of cells to various concentrations of drug (MDA-MB-235 cells; [11]): improves the sensitivity

uptake of 5-ALA (PpIX fluorescence) (U87-MG cells [8]; 6 h of TTFields exposure vs no TTFields, p=0.047): significantly increased uptake | uptake of 5-ALA (PpIX fluorescence) (U87-MG cells [8]; 24 h of TTFields exposure vs no TTFields, p=0.011): increase was maintained | 5-ALA uptake in the GBM cells compared to the fibroblast cells (ratio of PpIX fluorescence intensity) ([9]; TTFields exposure (by 24 h, p=0.043) vs no TTFields): significantly increased | rate of PpIX fluorescence intensity increase ([9]; TTFields-exposed vs unexposed co-cultures, 2, 6 and 24 h, p<0.001): significantly augmented
Compound: NCC(=O)CCC(=O)O [5-ALA, 5-aminolevulinic acid]

Compound: CC1=C(CO)C(=O)O[C@@H]([C@@H](C)[C@H]2CC[C@H]3[C@@H]4C[C@H]5O[C@]56[C@@H](O)C=CC(=O)[C@]6(C)[C@H]4CC[C@]23C)C1 [Withaferin A]
Annexin-V-APC binding (positive control for apoptosis) (U87-MG/eGFP-fLuc cells [10]): could be visualized | growth of human glioblastoma cells (human glioblastoma cells): synergistically inhibited the growth | synergy of the combination with TTFields (U87-MG/GFP-Luc cells): synergy was found | synergy of the combination with TTFields (GBM39/Luc cells): synergy was found | synergy of the combination with TTFields (pcGBM2/GFP-Luc cells): synergy was found
